Measurements taken from US11999732B2, “P2X3 receptor antagonists” (RECORDATI INDUSTRIA CHIMICA E FARMACEUTICA SPA, priority 2018, dated 2024).
Like-named read-outs stand apart in the source and are kept apart here.

Biological target: T1, human P2X3 receptor (Homo sapiens, UniProt P56373)
T1 construct: expressed in transfected cells; host or cells: CHO-K1
T1 sequence (P56373 1-397): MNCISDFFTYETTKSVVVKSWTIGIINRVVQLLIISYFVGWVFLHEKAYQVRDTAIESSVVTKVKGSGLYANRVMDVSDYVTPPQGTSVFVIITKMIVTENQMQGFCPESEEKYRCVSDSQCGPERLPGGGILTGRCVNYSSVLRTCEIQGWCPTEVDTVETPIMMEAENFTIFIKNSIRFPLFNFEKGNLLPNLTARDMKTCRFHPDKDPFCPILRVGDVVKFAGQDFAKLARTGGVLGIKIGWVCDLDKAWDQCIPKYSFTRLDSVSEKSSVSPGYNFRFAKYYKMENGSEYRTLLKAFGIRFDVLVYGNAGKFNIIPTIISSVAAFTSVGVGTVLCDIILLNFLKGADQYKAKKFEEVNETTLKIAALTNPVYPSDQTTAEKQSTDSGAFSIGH
Experiment: Calcium luminescence (photoprotein) assay in CHO-K1 cells co-expressing human P2X3 receptor, α,β-Met-ATP stimulation, FLEXSTATION readout
Assay type: cell-based
Conditions: human P2X3 receptor antagonist activity, CHO-K1 cells, α,β-Met-ATP, read-out: h-P2X3 IC50
Protocol: The assay for the human purinergic P2X3 receptor has been adapted to the internal screening instrumentation using the FLEXSTATION as reader and a photoprotein as luminescent readout. The assay consists of CHO-K1 cells recombinantly co-expressing the human P2rx3 receptor and a Ca^2+ sensitive photoprotein. Cells are maintained in DMEM F-12 (1:1) mixture (LONZA cat. no BE04-687F/U1) supplemented with 9 mL of 100 mM Sodium Pyruvate (LONZA cat. no BE13-115E), 29 mL of 7.5% Sodium Bicarbonate (LONZA cat. no: BE17-613E), 5.5 mL of 1 M Hepes (LONZA cat. no BE17-737E), 5 mL of 100× Penicillin/Streptomycin (LONZA cat. no DE17-602E) and 50 mL of Fetal Bovine Serum (Sigma cat. no F7524), 1 mg/mL G418 (Sigma cat. no G8168) and 5 µg/ml puromycin (Sigma cat. no P9620). Standard propagation conditions consist of seeding in a P75 flask twice a week, recovering about 20×10^6 cells, corresponding to about 80% confluency. Cells were seeded into black-walled clear bottom 96 well plates at a density of 40000 cells/well in a Tyrode's buffer (Standard Tyrode's buffer: in house solution, 130 mM NaCl, 5 mM KCl, 2 mM CaCl2, 5 mM NaHCO3, 1 mM MgCl2, 20 mM HEPES, pH 7.4). After 24 h the culture medium was replaced with 200 μL/well of coelenterazine in Tyrode's buffer (Coelenterazine: from BIOSYNTH (cat. no C-7001). 10 mM stock solution was prepared in DMSO and glutathione and stored at −20° C.). The plates were incubated for 4 hours at 37° C., and injected with 10 μL/well of test compounds at 25× concentration in Tyrode's buffer. After 4 minutes a second injection of 50 μL/well of 5× α,β-Met-ATP in Tyrode's buffer (α,β-Met-ATP: from Tocris (cat. no 3209), was dissolved at 100 mM in water and stored in aliquots at −20° C.) was performed and the signal of the emitted luminescence was recorded by FLEXSTATION III (Molecular Devices).
The inhibition curves of the tested compounds at cloned P2X3 receptor were determined by nonlinear regression analysis using software Prism 4.0 (Graphpad, San Diego, Calif.). The IC50 values and pseudo-Hill slope coefficients were estimated by the program.

IC50 (Table 6)	IC50 (Table 7)	Compound
9.2 µM		COc1cc(CN2C(=O)N3CC(C(C)C)N=C3c3ncc(C(=O)NC4CCOCC4)cc32)cc(OC)c1 (stereo not shown) [Example 58, 6-(3,5-dimethoxybenzyl)-5-oxo-2-(propan-2-yl)-n-(tetrahydro-2H-pyran-4-yl)-2,3,5,6-tetrahydroimidazo[1,2-c]pyrido[2,3-e]pyrimidine-8-carboxamide]
1.1 µM		COc1cc(CN2C(=O)N3CC(C(C)C)N=C3c3ncc(C(=O)N4CCOCC4)cc32)cc(OC)c1 (stereo not shown) [Example 60, 6-(3,5-dimethoxybenzyl)-8-(morpholin-4-ylcarbonyl)-2-(propan-2-yl)-2,6-dihydroimidazo[1,2-c]pyrido[2,3-e]pyrimidin-5(3H)-one]
1.08 µM		O=C1N2CC(CC3CCCCC3)N=C2c2ncc(N3CCOCC3)cc2N1Cc1ccc(Cl)cc1 (stereo not shown) [Example 61, 6-(4-chlorobenzyl)-2-(cyclohexylmethyl)-8-(morpholin-4-yl)-2,6-dihydroimidazo[1,2-c]pyrido[2,3-e]pyrimidin-5(3H)-one]
0.72 µM		CC(C)CCC1CN2C(=O)N(Cc3ccc(Cl)cc3)c3cc(N4CCOCC4)cnc3C2=N1 (stereo not shown) [Example 62, 6-(4-chlorobenzyl)-2-(3-methylbutyl)-8-(morpholin-4-yl)-2,6-dihydroimidazo[1,2-c]pyrido[2,3-e]pyrimidin-5(3H)-one]
0.299 µM		CC(C)CCC1CN=C2c3ncc(N4CCOCC4)cc3N(Cc3ccc(Cl)cc3)C(=O)N21 (stereo not shown) [Example 63, 6-(4-chlorobenzyl)-3-(3-methylbutyl)-8-(morpholin-4-yl)-2,6-dihydroimidazo[1,2-c]pyrido[2,3-e]pyrimidin-5(3H)-one]
0.109 µM		CC(C)CC1C(=O)N=C2c3ncc(N4CCOCC4)cc3N(Cc3ccc(Cl)cc3)C(=O)N21 (stereo not shown) [Example 64, 6-(4-chlorobenzyl)-3-(2-methylpropyl)-8-(morpholin-4-yl)imidazo[1,2-c]pyrido[2,3-e]pyrimidine-2,5(3H,6H)-dione]
1.79 µM		COCCC1CN2C(=O)N(Cc3ccc(OC)cc3)c3cc(N4CCOCC4)cnc3C2=N1 (stereo not shown) [Example 65, 6-(4-methoxybenzyl)-2-(2-methoxyethyl)-8-(morpholin-4-yl)-2,6-dihydroimidazo[1,2-c]pyrido[2,3-e]pyrimidin-5(3H)-one]
2.28 µM		COCCC1CN=C2c3ncc(N4CCOCC4)cc3N(Cc3ccc(OC)cc3)C(=O)N21 (stereo not shown) [Example 66, 6-(4-methoxybenzyl)-3-(2-methoxyethyl)-8-(morpholin-4-yl)-2,6-dihydroimidazo[1,2-c]pyrido[2,3-e]pyrimidin-5(3H)-one]
0.109 µM		CC(C)(C)C1C(=O)N=C2c3ncc(N4CCOCC4)cc3N(Cc3ccc(Cl)cc3)C(=O)N21 (stereo not shown) [Example 68, 3-tert-butyl-6-(4-chlorobenzyl)-8-(morpholin-4-yl)imidazo[1,2-c]pyrido[2,3-e]pyrimidine-2,5(3H,6H)-dione]
0.0983 µM		COc1ccc(CN2C(=O)N3C(=NC(=O)C3C(C)(C)C)c3ncc(N4CCOCC4)cc32)cc1 (stereo not shown) [Example 69, 3-tert-butyl-6-(4-methoxybenzyl)-8-(morpholin-4-yl)imidazo[1,2-c]pyrido[2,3-e]pyrimidine-2,5(3H,6H)-dione]
	0.139 µM	COc1cc(Cn2c(=O)n3c(C)c(C)nc3c3ncc(NCC4COC4)cc32)cc(OC)c1 [Example 70, 6-(3,5-dimethoxybenzyl)-2,3-dimethyl-8-{[(oxetan-3-yl)methyl]amino}imidazo[1,2-c]pyrido[2,3-e]pyrimidin-5(6H)-one]
	1.39 µM	Cc1ccc(Cn2c(=O)n3cc(CC(C)C)nc3c3ncccc32)cc1 [Example 72, 6-(4-methylbenzyl)-2-(2-methylpropyl)imidazo[1,2-c]pyrido[2,3-e]pyrimidin-5(6H)-one]
	0.917 µM	CC(C)Cc1cn2c(=O)n(Cc3ccc(Cl)cc3)c3cc(N4CC5(COC5)C4)cnc3c2n1 [Example 73, 6-(4-chlorobenzyl)-2-(2-methylpropyl)-8-(2-oxa-6-azaspiro[3.3]heptan-6-yl)imidazo[1,2-c]pyrido[2,3-e]pyrimidin-5(6H)-one]
	0.416 µM	COc1cc(Cn2c(=O)n3cc(CC(C)C)nc3c3ncc(N4CCOCC4)cc32)cc(OC)c1 [Example 74, 6-(3,5-dimethoxybenzyl)-2-(2-methylpropyl)-8-(morpholin-4-yl)imidazo[1,2-c]pyrido[2,3-e]pyrimidin-5(6H)-one]
	3.51 µM	CC(C)Cc1cn2c(=O)n(Cc3c(F)cc(Cl)cc3F)c3cc(N4CCOCC4)cnc3c2n1 [Example 75, 6-(4-chloro-2,6-difluorobenzyl)-2-(2-methylpropyl)-8-(morpholin-4-yl)imidazo[1,2-c]pyrido[2,3-e]pyrimidin-5(6H)-one]
	0.381 µM	CCc1nc2c3ncc(NCC4COC4)cc3n(Cc3cc(OC)cc(OC)c3)c(=O)n2c1C [Example 76, 6-(3,5-dimethoxybenzyl)-2-ethyl-3-methyl-8-{[(oxetan-3-yl)methyl]amino}imidazo[1,2-c]pyrido[2,3-e]pyrimidin-5(6H)-one]
	0.239 µM	CCc1c(C)nc2c3ncc(NCC4COC4)cc3n(Cc3cc(OC)cc(OC)c3)c(=O)n12 [Example 77, 6-(3,5-dimethoxybenzyl)-3-ethyl-2-methyl-8-{[(oxetan-3-yl)methyl]amino}imidazo[1,2-c]pyrido[2,3-e]pyrimidin-5(6H)-one]
	0.631 µM	COc1ccc(Cn2c(=O)n3cc(CC(C)C)nc3c3ncc(N4CCOCC4)cc32)cc1 [Example 78, 6-(4-methoxybenzyl)-2-(2-methylpropyl)-8-(morpholin-4-yl)imidazo[1,2-c]pyrido[2,3-e]pyrimidin-5(6H)-one]
	0.0537 µM	COc1cc(Cn2c(=O)n3c(C)c(C(C)C)nc3c3ncc(N4CCOCC4)cc32)cc(OC)c1 [Example 79, 6-(3,5-dimethoxybenzyl)-3-methyl-8-(morpholin-4-yl)-2-(propan-2-yl)imidazo[1,2-c]pyrido[2,3-e]pyrimidin-5(6H)-one]
	1.53 µM	COc1cc(Cn2c(=O)n3cc(CC(C)C)nc3c3ncc(N4CCN(C(=O)CO)CC4)cc32)cc(OC)c1 [Example 80, 6-(3,5-dimethoxybenzyl)-8-[4-(hydroxyacetyl)piperazin-1-y1]-2-(2-methylpropyl)imidazo[1,2-c]pyrido[2,3-e]pyrimidin-5(6H)-one]
	0.269 µM	COc1cc(Cn2c(=O)n3c(C)c(C)nc3c3ncc(N4CC5(COC5)C4)cc32)cc(OC)c1 [Example 81, 6-(3,5-dimethoxybenzyl)-2,3-dimethyl-8-(2-oxa-6-azaspiro[3.3]heptan-6-yl)imidazo[1,2-c]pyrido[2,3-e]pyrimidin-5(6H)-one]
	0.332 µM	COc1cc(Cn2c(=O)n3c(C)c(C)nc3c3ncc(N4CCOCC4)cc32)cc(OC)c1 [Example 82, 6-(3,5-dimethoxybenzyl)-2,3-dimethyl-8-(morpholin-4-yl)imidazo[1,2-c]pyrido[2,3-e]pyrimidin-5(6H)-one]
	0.292 µM	COc1cc(Cn2c(=O)n3c(C)c(C(C)C)nc3c3ncc(NCC4COC4)cc32)cc(OC)c1 [Example 83, 6-(3,5-dimethoxybenzyl)-3-methyl-8-[(oxetan-3-ylmethyl)amino]-2-(propan-2-yl)imidazo[1,2-c]pyrido[2,3-e]pyrimidin-5(6H)-one]

Compound	IC50 (Table 6)	IC50 (Table 7)
COc1ccc(CN2C(=O)N3CC(COC(C)(C)C)N=C3c3ncc(N4CCOCC4)cc32)cc1 (stereo not shown) [Example 57, 2-(tert-butoxymethyl)-6-(4-methoxybenzyl)-8-(morpholin-4-yl)-2,6-dihydroimidazo[1,2-c]pyrido[2,3-e]pyrimidin-5(3H)-one]	3.28 µM	
COc1ccc(CN2C(=O)N3C(=NCC3COC(C)(C)C)c3ncc(N4CCOCC4)cc32)cc1 (stereo not shown) [Example 67, 3-(tert-butoxymethyl)-6-(4-methoxybenzyl)-8-(morpholin-4-yl)-2,6-dihydroimidazo[1,2-c]pyrido[2,3-e]pyrimidin-5(3H)-one]	0.218 µM	
